In US7674807B2, “Heterocycle-substituted n-phenyl-phthalamide derivatives, related compounds and their use as insecticides” (Bayer CropScience AG, priority 2004, dated 2010):

Legend:
Format in all cases: in vivo
[1] = test system: Myzus persicae resistant to organophosphorous agents and carbamates; assay: Test against Myzus persicae resistant to organophosphorous agents and carbamates (spray on eggplant seedlings); conditions: 100 ppm concentration of the effective component; 7 days after spraying; green house of 28° C.
Procedure: About 30 bred Myzus persicae resistant to organophosphorous agents and carbamates were inoculated per 1 seedling of eggplant planted in a vinyl pot of 6 cm diameter. One day after the inoculation, a sufficient amount of a diluted aqueous solution of a prescribed concentration of an active compound prepared as mentioned above, was sprayed by using a spray gun. After spraying it was placed in a green house of 28° C. and the rate of death was calculated 7 days after the spraying. Test was repeated twice.

[2] = test system: larva of Spodoptera litura; assay: Test against larva of Spodoptera litura (leaf dip, sweet potato leaves); conditions: 20 ppm concentration of the active component; third instar larvae; counted after 7 days; 25° C.
Method in brief: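 Sweet potato leaves were dipped in emulsified compound diluted with water, air-dried, and given to 10 third-instar larvae per dish at 25° C, with fresh leaves added on days 2 and 4. Mortality was counted after 7 days and averaged over 2 dishes.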

[3] = test system: larva of Cnaphalocrocis medinalis Guenee; assay: Test against larva of Cnaphalocrocis medinalis Guenee (sprayed paddy rice foliage); conditions: 20 ppm concentration of the active component; second instar larvae; counted after 7 days; 25° C.
Method in brief: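 Potted rice (Tamanishiki) sprayed with aqueous dilutions of compound at the prescribed concentration; air-dried leaf pieces placed in dishes with five 2nd-instar larvae at 25° C, fresh treated foliage added at days 2 and 4. Mortality counted at day 7, averaged over 2 dishes.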

Row | Compound | controlling effect, rate of death [1] [%] | controlling effect, rate of death [2] [%] | controlling effect, rate of death [3] [%]
1 | CSCC(C)NC(=O)c1c(Cl)cccc1C(=O)Nc1ccc(Cn2nc(C(F)(F)F)nc2C(F)(F)F)cc1C (stereo not shown) [compound 140] | 100 | 100 | 100
2 | CSCC(C)NC(=O)c1c(Cl)cccc1C(=O)Nc1ccc(Cn2nc(C(F)(F)F)nc2C(F)(F)F)cc1C (stereo not shown) [compound 141] | 100 | 100 | 100
3 | Cc1cc(Cn2nc(C(F)(F)F)nc2C(F)(F)F)ccc1NC(=O)c1cccc(Cl)c1C(=O)NC(C)CS(C)(=O)=O (stereo not shown) [compound 144] | 100 | 100 | 100
4 | CSCC(C)NC(=O)c1c(Br)cccc1C(=O)Nc1ccc(Cn2nc(C(F)(F)F)nc2C(F)(F)F)cc1C (stereo not shown) [compound 178] | 100 | – | –
5 | CSCC(C)NC(=O)c1c(I)cccc1C(=O)Nc1ccc(Cn2nc(C(F)(F)F)nc2C(F)F)cc1C (stereo not shown) [compound 239] | 100 | – | –
6 | Cc1cc(Cn2nc(C(F)(F)F)nc2C(F)F)ccc1NC(=O)c1cccc(I)c1C(=O)NC(C)CS(C)(=O)=O (stereo not shown) [compound 243] | 100 | – | –
7 | Cc1cc(C(C)n2nc(C(F)(F)F)nc2C(F)(F)F)ccc1NC(=O)c1cccc(Cl)c1C(=O)N[C@@H](C)C[S+](C)[O-] (stereo partly shown) [compound 569] | 100 | – | –
8 | Cc1cc(Cn2cc(C(F)(F)C(F)(F)C(F)(F)C(F)(F)F)c(C(F)(F)F)n2)ccc1NC(=O)c1cccc(I)c1C(=O)N[C@@H](C)C[S+](C)[O-] (stereo partly shown) [compound 649] | – | 100 | 100
9 | Cc1cc(Cn2cc(C(F)(F)C(F)(F)C(F)(F)C(F)(F)F)c(C(F)(F)F)n2)ccc1NC(=O)c1cccc(I)c1C(=O)N[C@@H](C)CS(C)(=O)=O [compound 650] | – | 100 | 100
10 | Cc1cc(Cn2cc(C(F)(F)C(F)(F)F)c(C(F)(F)C(F)(F)F)n2)ccc1NC(=O)c1cccc(I)c1C(=O)N[C@@H](C)C[S+](C)[O-] (stereo partly shown) [compound 655] | – | 100 | 100
11 | Cc1cc(Cn2cc(C(F)(F)C(F)(F)F)c(C(F)(F)C(F)(F)F)n2)ccc1NC(=O)c1cccc(I)c1C(=O)N[C@@H](C)CS(C)(=O)=O [compound 656] | – | 100 | 100
12 | CSC[C@H](C)NC(=O)c1c(Cl)cccc1C(=O)Nc1ccc(Cn2cc(C(F)(F)C(F)(F)C(F)(F)F)c(C(F)(F)C(F)(F)F)n2)cc1C [compound 657] | – | 100 | 100
13 | Cc1cc(Cn2cc(C(F)(F)C(F)(F)C(F)(F)F)c(C(F)(F)C(F)(F)F)n2)ccc1NC(=O)c1cccc(Cl)c1C(=O)N[C@@H](C)C[S+](C)[O-] (stereo partly shown) [compound 658] | – | 100 | 100
14 | Cc1cc(Cn2cc(C(F)(F)C(F)(F)C(F)(F)F)c(C(F)(F)C(F)(F)F)n2)ccc1NC(=O)c1cccc(Cl)c1C(=O)N[C@@H](C)CS(C)(=O)=O [compound 659] | – | 100 | 100
15 | CSC[C@H](C)NC(=O)c1c(I)cccc1C(=O)Nc1ccc(Cn2cc(C(F)(F)C(F)(F)C(F)(F)F)c(C(F)(F)C(F)(F)F)n2)cc1C [compound 660] | – | 100 | 100
16 | Cc1cc(Cn2cc(C(F)(F)C(F)(F)C(F)(F)F)c(C(F)(F)C(F)(F)F)n2)ccc1NC(=O)c1cccc(I)c1C(=O)N[C@@H](C)C[S+](C)[O-] (stereo partly shown) [compound 661] | – | 100 | 100
17 | Cc1cc(Cn2cc(C(F)(F)C(F)(F)C(F)(F)F)c(C(F)(F)C(F)(F)F)n2)ccc1NC(=O)c1cccc(I)c1C(=O)N[C@@H](C)CS(C)(=O)=O [compound 662] | – | 100 | 100
18 | CSC[C@H](C)NC(=O)c1c(Cl)cccc1C(=O)Nc1ccc(Cn2cc(C(F)(F)C(F)(F)C(F)(F)C(F)(F)F)c(C(F)(F)C(F)(F)F)n2)cc1C [compound 663] | – | 100 | 100
19 | CSC[C@H](C)NC(=O)c1c(I)cccc1C(=O)Nc1ccc(Cn2cc(C(F)(F)C(F)(F)C(F)(F)C(F)(F)F)c(C(F)(F)C(F)(F)F)n2)cc1C [compound 664] | – | 100 | 100
20 | CSC[C@H](C)NC(=O)c1c(Cl)cccc1C(=O)Nc1ccc(Cn2cc(C(F)(F)C(F)(F)F)c(C(F)(F)C(F)(F)C(F)(F)F)n2)cc1C [compound 665] | – | 100 | 100
21 | CSC[C@H](C)NC(=O)c1c(I)cccc1C(=O)Nc1ccc(Cn2cc(C(F)(F)C(F)(F)F)c(C(F)(F)C(F)(F)C(F)(F)F)n2)cc1C [compound 666] | – | 100 | 100
22 | CSC[C@H](C)NC(=O)c1c(Cl)cccc1C(=O)Nc1ccc(Cn2cc(C(F)(F)C(F)(F)C(F)(F)F)c(C(F)(F)C(F)(F)C(F)(F)F)n2)cc1C [compound 667] | – | 100 | 100
23 | Cc1cc(Cn2cc(C(F)(F)C(F)(F)C(F)(F)F)c(C(F)(F)C(F)(F)C(F)(F)F)n2)ccc1NC(=O)c1cccc(Cl)c1C(=O)N[C@@H](C)C[S+](C)[O-] (stereo partly shown) [compound 668] | – | 100 | 100
24 | Cc1cc(Cn2cc(C(F)(F)C(F)(F)C(F)(F)F)c(C(F)(F)C(F)(F)C(F)(F)F)n2)ccc1NC(=O)c1cccc(Cl)c1C(=O)N[C@@H](C)CS(C)(=O)=O [compound 669] | – | 100 | 100
25 | CSC[C@H](C)NC(=O)c1c(I)cccc1C(=O)Nc1ccc(Cn2cc(C(F)(F)C(F)(F)C(F)(F)F)c(C(F)(F)C(F)(F)C(F)(F)F)n2)cc1C [compound 670] | – | 100 | 100
26 | Cc1cc(Cn2cc(C(F)(F)C(F)(F)C(F)(F)F)c(C(F)(F)C(F)(F)C(F)(F)F)n2)ccc1NC(=O)c1cccc(I)c1C(=O)N[C@@H](C)C[S+](C)[O-] (stereo partly shown) [compound 671] | – | 100 | 100
27 | Cc1cc(Cn2cc(C(F)(F)C(F)(F)C(F)(F)F)c(C(F)(F)C(F)(F)C(F)(F)F)n2)ccc1NC(=O)c1cccc(I)c1C(=O)N[C@@H](C)CS(C)(=O)=O [compound 672] | – | 100 | 100
28 | CSC[C@H](C)NC(=O)c1c(Cl)cccc1C(=O)Nc1ccc(Cn2nc(C(F)(F)C(F)(F)F)nc2C(F)(F)C(F)(F)F)cc1C [compound 681] | – | 100 | 100
29 | Cc1cc(Cn2nc(C(F)C(F)(F)F)nc2C(F)(F)F)ccc1NC(=O)c1cccc(Cl)c1C(=O)N[C@@H](C)C[S+](C)[O-] (stereo partly shown) [compound 797] | 100 | – | –
30 | CSC[C@H](C)NC(=O)c1c(Cl)cccc1C(=O)Nc1ccc(Cn2nc(SC(F)(F)C(F)(F)C(F)(F)F)nc2C(F)(F)F)cc1C [compound 804] | – | 100 | 100
